Consider eight molecules from patent US20030021796A1, “Method of enhancing T cell immunity by selection of antigen specific T cells” (priority 2001, published 2003).

Data set [1] relates to transgenic CD4^+ thymocytes. The data set can be described thus: Positive selection of CD4^+ thymocytes after peptide injection into TCR^TgTCRα^−H2-M^−Ii^− mice (flow cytometry of thymus). The format is in vivo, mouse. The note with it: for positive selection of transgenic thymocytes: i.p., non-deleting dose (20 μg); for percentage of CD4^+ single positive cells (thymus): 3 days after peptide injection; for effect on thymic selection: exogenous peptides without agonist properties. From the text: Mice. The TCR genes were cloned from T cell hybridoma specific for analogs of the PCC(43-58) peptide and expressed in VA-hCD2 cassette (Ignatowicz et al., 1997; Kraj et al., 2001; Zhumabekov et al., 1995). All TCR transgenic mice were made by co-microinjection of the respective […] and TCRβ constructs into fertilized eggs of F1 (C57BL/6×CBA/Ca) mice. TCR Tg mice were crossed to C57B16/TCRα^− (Jackson Laboratory, ME) mice and to mice deficient in H2-M (kindly provided by E. Bikoff and R. Germain) and Ii (kindly provided by L. van Kaer) to obtain TCR^TgTCRα^− H2-M^−Ii^−.
(§1) Flow cytometry analysis. Monoclonal antibodies specific for CD4(RM4-5), CD8(53-6.7), VβB8(F23.1), CD69(H1.2F3), CD44(IM7) and CD62L(MEL-14) were purchased from PharMingen (San Diego, Calif.) and used according to manufacturer's recommendations. Cells were analyzed using a FACSCalibur instrument (Becton Dickinson, San Jose, Calif.) and CellQuest software. For intracellular stain cells were first stained for CD4 and CD8, fixed in 2% paraformaldehyde, permeabilized in 0.1% Tween-20 and stained with anti-bcl-2 antibody (Pharmingen) according to manufacturer instruction.
(§2) Peptide injections and surgical procedures. TCR^TgTCRα^− and TCR^TgTCRαH2-M^−Ii^− were injected i.p. with agonist and control peptides dissolved in PBS. After indicated time mice were sacrificed, thymus and lymph nodes were collected and single cell suspensions were prepared. Pups were injected with 2 μg of peptide subcutaneously 12-24 hours after birth and thymi were transplanted into recipient mice 24 hours after injection. 5-8 week old TCR^TgTCRα^− H2-M^−Ii^− mice were used for thymectomy or as thymic transplant recipients. Surgical procedures were performed as described (Coligan et al., 1997). Mice were handled according with the institutional guidance.
For orientation: In flow cytometry, cells or beads pass a laser one at a time.

Data set [2] relates to TCR^TgTCRα^− lymph node cells. Nature of the data set: Proliferation of TCR transgenic lymph node cells stimulated with agonist peptides ([3H]thymidine incorporation). Format: cell-based, mouse. The conditions noted are these: for recognition by the transgenic TCR / stimulation of transgenic cells: peptides presented by irradiated C57BL6 splenocytes; for agonist potency / agonist properties: in vitro stimulation of transgenic T cells. The protocol: Antigen response of TCR transgenic cells. Proliferation of lymph node cells isolated from TCR^TgTCRα^−and TCR^TgTCRα^−2-M^−Ii^− mice injected with the selecting peptide was measured in response to antigen. Response of the TCR^TgTCRα^− lymph node cells to different agonist peptides was measured by proliferation assay in a 96-well plate. 10^5 responder cells were stimulated with peptides presented by 5×10^5 irradiated C57BL6 splenocytes. Agonist peptides were used at concentrations of 0.01, 0.1, 0.5, 1.0, 2.5, 5.0, 10.0 and 20.0 μM. After 3 days cells were pulsed with 1 μCi of [^3H]thymidine added to each well and after 18 hours thymidine incorporation was measured. The sequences of peptides used were: PCC50V (AEGFSYTVANKNKGIT), PCC50L (AEGFSYTLANKNKGIT), PCC50V54A (AEGFSYTVANKAKGIT), PCC46A49A50V54A (AEGASYAVANKAKGIT), PCC50F54A (AEGFSYTFANKAKGIT), neutral ceramidase (AGFFQYTLYILASEG) and IgGVH (NADFKTPATLTVDKA). All peptides were synthesized by FMOC (fluorenyl methoxycarbonyl) chemistry and purified by reversed-phase high-performance liquid chromatography. To compare the antigenic response of CD4^+ TCR Tg cells lymph node cells were collected from TCR^TgTCRα^− and TCR^TgTCRα^−H2-M^−Ii^− mice two weeks after peptide injection. Single cell suspensions were prepared and CD4^+ cells were sorted using magnetic beads coated with anti CD4 antibodies (MACS). Purity of sorted cells exceeded 85%. 2×10^4 of purified CD4^+ cells were used in proliferation assay. Cells were stimulated with increasing concentrations of agonist peptides presented by APCs from wild type or H2-M^−Ii^− mice. IgGVH derived peptide (20 μM) was used as a negative control. Peptides were presented by irradiated splenocytes from a C57BL6 mouse. Proliferation was measured after 3 days by thymidine incorporation by pulsing cells with 1 μCi of [^3H] thymidine for 18 hours. Antagonism assay was done by prepulsing 5×10^5 antigen-presenting cells per well for 2 hr. with 5 μM of the antigenic peptide PCC50V54A, washing, and then exposing them to varying concentrations of peptide analogs with 2×10^4 purified CD4^+ TCR^Tg lymphocytes as responder cells (Lyons et al., 1996). For antagonism assays the percent of proliferation inhibition was calculated as 100-100*(thymidine incorporation in the presence of antagonist/thymidine incorporation in the absence of antagonist) (Lyons et al., 1996).
On the technique in general: Incorporation of labelled thymidine or its analogues reports DNA synthesis.

The test system of a further data set is transgenic thymocytes. The data set can be described thus: Negative selection of transgenic thymocytes after i.p. peptide injection into TCR^TgTCRα^− mice (wild type A^b). The format is in vivo, mouse. The note with it: 24 hours; for negative selection / deletion of transgenic thymocytes: 200 μg/mouse i.p. How it is done:
as §1, §2
Characterization of peptide agonists for the PCC specific transgenic αβTCR. To examine the role of peptides during positive selection in vivo, the inventors generated transgenic mice expressing class II restricted TCR specific for analogs of a pigeon cytochrome C peptide PCC(43-58) presented by the A molecule (Kraj et al., 2001). This receptor recognizes analogs of PCC(43-58) in which aspartic acid in position 50 is replaced by amino acids with neutral/hydrophobic (PCC50V, PCC50V54A, PCC46A49A50V54A, PCC50L, PCC50F) side chains (FIG. 6 and FIG. 9). The TCR transgenic mice were backcrossed to C57BL6 TCRα^− knockout mice so that almost all T cells expressing transgenic TCR become CD4^+ T cells (FIG. 4A and FIG. 10A). Initially, the inventors examined the capacity of agonist peptides to induce negative selection of transgenic T cells.

For data set [3], the system named is peptide selected CD4^+ cells. Nature of the data set: Antigen response (proliferation) of lymph node CD4^+ cells from peptide-injected TCR^TgTCRα^−H2-M^−Ii^− mice. Format: cell-based, mouse. How it is done: Antigen response of TCR transgenic cells. Proliferation of lymph node cells isolated from TCR^TgTCRα^−and TCR^TgTCRα^−2-M^−Ii^− mice injected with the selecting peptide was measured in response to antigen. Response of the TCR^TgTCRα^− lymph node cells to different agonist peptides was measured by proliferation assay in a 96-well plate. 10^5 responder cells were stimulated with peptides presented by 5×10^5 irradiated C57BL6 splenocytes. Agonist peptides were used at concentrations of 0.01, 0.1, 0.5, 1.0, 2.5, 5.0, 10.0 and 20.0 μM. After 3 days cells were pulsed with 1 μCi of [^3H]thymidine added to each well and after 18 hours thymidine incorporation was measured. The sequences of peptides used were: PCC50V (AEGFSYTVANKNKGIT), PCC50L (AEGFSYTLANKNKGIT), PCC50V54A (AEGFSYTVANKAKGIT), PCC46A49A50V54A (AEGASYAVANKAKGIT), PCC50F54A (AEGFSYTFANKAKGIT), neutral ceramidase (AGFFQYTLYILASEG) and IgGVH (NADFKTPATLTVDKA). […] Proliferation was measured after 3 days by thymidine incorporation by pulsing cells with 1 μCi of [^3H] thymidine for 18 hours. […] For antagonism assays the percent of proliferation inhibition was calculated as 100-100*(thymidine incorporation in the presence of antagonist/thymidine incorporation in the absence of antagonist) (Lyons et al., 1996).

A further data set concerns lymph node cells. Nature of the data set: Repopulation of peripheral lymph nodes in peptide-injected TCR^TgTCRα^−H2-M^−Ii^− mice. The format is in vivo, mouse. The conditions noted are these: for percentage of CD4^+ positive cells (lymph node): analyzed 12 days after injection. The protocol:
as §1, §2

For data set [4], the system named is OT-II transgenic thymocytes. Nature of the data set: Selection of OT-II transgenic thymocytes in OT-II TCRα^−→TCRα^−H2M^−Ii^− chimeras after peptide injection. The format is in vivo, mouse. The text has this:
OT-II agonist peptide may be used for positive selection of transgenic CD4^+ cells. Injection of a low dose of agonist peptides restores positive selection of OT-II transgenic CD4^+ T cells in […] →TCRα^−2-M^−Ii^− chimeras. OT-II transgenic mice (C57BL/6TgN(TcrOva)) express a Class II restricted T cell receptor for ovalbumin residues 323-339 in the context of H-2^b. To determine if the experimental approach can be applied to other transgenic CD4^+ T cells, radiation chimeras were generated where TCRα^−H2-H2-M^−Ii^− mice were lethally irradiated and reconstituted with fetal liver from OT-II^TgTCRα^− mice. In these chimeras the development of OT-II^TgTCRα^− thymocytes is arrested at the CD4^+CD8^+ stage due to the lack of endogenous selecting peptides. After 8 weeks chimeras were injected once with different doses of the agonist Ova(323-339) peptide, which is a peptide present in the ovalbumin protein.

“Also recorded” adds a separate entry of the source. Residues, ends and D or L forms follow the SMILES beside them.

On to `CC[C@H](C)[C@H](NC(=O)CNC(=O)[C@H](CCCCN)NC(=O)[C@H](CC(N)=O)NC(=O)[C@H](CCCCN)NC(=O)[C@H](CC(N)=O)NC(=O)[C@H](C)NC(=O)[C@H](CCC(=O)O)NC(=O)[C@@H](NC(=O)[C@H](Cc1ccc(O)cc1)NC(=O)[C@H](CO)NC(=O)[C@H](Cc1ccccc1)NC(=O)CNC(=O)[C@H](CCC(=O)O)NC(=O)[C@H](C)N)[C@@H](C)O)C(=O)N[C@H](C(=O)O)[C@@H](C)O` [PCC50E] (H-AEGFSYTEANKNKGIT-OH), for which the “number of CD4^+ thymocytes positively selected by PCC50V54A on co-injection of antagonist” value in data set [1] (3 μg antagonist + 3 μg PCC50V54A, four days later) is given as “significantly reduced”.
For the molecule “AEGASYAVANKAKGIT [PCC46A49A50V54A, analog of PCC(43-58); agonist]”, the “recognition by the transgenic TCR / stimulation of transgenic cells” value in data set [2] is listed as “recognizes”. In addition, the “positive selection of transgenic thymocytes” value in data set [1] was “restored positive selection”.
Turning to “AEGFSYTFANKAKGIT [PCC50F54A, analog of PCC(43-58); agonist]”, in data set [2], the “recognition by the transgenic TCR / stimulation of transgenic cells” value was “stimulate”. Moreover, the “positive selection of transgenic thymocytes” value in data set [1] is recorded as “restored positive selection”.
As to “AEGFSYTLANKNKGIT [PCC50L, analog of PCC(43-58)]”, the “negative selection / deletion of transgenic thymocytes” value with transgenic thymocytes is given as “induced profound negative selection”. Moreover, in data set [2], the “agonist potency / agonist properties” value was “Strong agonists” and the “recognition by the transgenic TCR / stimulation of transgenic cells” value is recorded as “recognizes; also recorded: stimulate”. The “positive selection of transgenic thymocytes” value in data set [1] is listed as “restored positive selection”.
Regarding “AEGFSYTVANKNKGIT [PCC50V, analog of PCC(43-58)]”, the “negative selection of transgenic thymocytes” value in the data set on transgenic thymocytes (20 μg i.p., thymus cellularity, annexin V, TUNNEL) was “did not induce negative selection”. For the same molecule, the “negative selection / deletion of transgenic thymocytes” value with transgenic thymocytes was “induced only marginal deletion; also recorded: induced only limited deletion”. Moreover, in data set [2], the “agonist potency / agonist properties” value was “moderate agonist” and the “recognition by the transgenic TCR / stimulation of transgenic cells” value is recorded as “recognizes; also recorded: stimulate”. Also, the “positive selection of transgenic thymocytes” value in data set [1] is reported as “restored positive selection”.
Turning to AGFFQYTLYILASEG [neutral ceramidase], the “response of peptide selected CD4^+ cells to agonist peptides in vitro” value in data set [3] was “weakly proliferated; also recorded: respond in vitro”. The “CD4^+ cells in peripheral lymph nodes” value in the data set on lymph node cells (after i.p. injection, about two weeks) is recorded as “appeatence of CD4^+ lymphocytes in the peripheral lymph nodes”. The “percentage of CD4^+ positive cells (lymph node)” value in the data set on lymph node cells is 7.6±1.8 percentage. The “agonist potency / agonist properties” value in data set [2] is listed as “weak agonist”. Also, in data set [1] (50 μg i.p.), the “positive selection of transgenic CD4^+ thymocytes” value was “weak positive selection; also recorded: mediates positive selection” and the “percentage of CD4^+ single positive cells (thymus)” value is on record as 1.7±0.6 percentage.
As for “NADFKTPATLTVDKA [IgGVH, reference compound]”, the “percentage of CD4^+ positive cells (lymph node)” value in the data set with lymph node cells amounted to 2.4±0.8 percentage. In data set [1] (50 μg i.p.), the “percentage of CD4^+ single positive cells (thymus)” value is 0.8±0.4 percentage. The “effect on thymic selection” value in data set [1] was “had no effect on thymic selection”.
With “Ova(323-339): peptide present in the ovalbumin protein; agonist for the OT-II TCR (KISQAVHAAHAEINEAG; UniProt P01012 323-339, looked up, fragment)”, in data set [4] (high dose (100 μg and above)), the “negative selection of transgenic thymocytes” value is reported as “induced negative selection”. The “selection of CD4^+ thymocytes” value in data set [4] (low dose (5-20 μg)) is listed as “induced selection of a significant number of CD4^+ thymocytes”. For the same molecule, in data set [4] (mouse, in vivo), the “response of selected thymocytes to selecting peptide” value is listed as “continued to respond to stimulation by selecting peptide; also recorded: retain their ability to respond to selecting peptide”. Besides, the “selection of transgenic CD4^+ thymocytes” value in data set [4] (single injection of 10 μg, 48 and 72 hours) was “initiates selection of transgenic CD4^+Vβ5^+ thymocytes”. Moreover, the “effect on thymic selection” value in data set [1] is recorded as “had no effect on thymic selection”.
